This data set has as its target SOD1. The settings on record: ASO.

“And” between values parts separate entries of the source, which are not always exact repeats. Identical values can stand only once. After the bases stand the sugars from the 5' end (letter, count) and the backbone: PS all phosphorothioate, else s phosphorothioate and o phosphodiester by linkage. Methylation of C is not given here. e = 2'-O-(2-methoxyethyl) (MOE); k = constrained ethyl (cEt); d = 2'-deoxy (DNA)

For “TTTAATGTTTATCAGG (sugars kekeddddddddekek, linkages s1 o3 s8 o1 s2)”, the target mRNA inhibition was determined as 15% (A431, 0.12 µM); 44% (A431, 0.6 µM); 73% (A431, 3 µM); 85% (A431, 15 µM); 73% (HepG2, 0.222 µM); 90% (HepG2, 0.667 µM). For the same sequence, the target mRNA inhibition stood at 93% (HepG2, 2 µM) and 97% (HepG2, 6 µM).
Where the note is “HepG2, 5 µM”, “CACAGGCTTGAATGACA (sugars e2 k2 d9 k2 e2, PS)” displayed a target mRNA inhibition of 47%.
Consider “GGATACATTTCTACAGC (sugars e5 d8 k2 e2, linkages s1 o3 s9 o1 s2)”, for which the target mRNA inhibition reads like this: (A431, 0.062 µM) 2%; (A431, 0.185 µM) 4%; (A431, 0.556 µM) 15%; (A431, 1.667 µM) 19%; (A431, 5 µM) 37%; (A431, 15 µM) 44%. Moreover, the target mRNA inhibition is 0% (SH-SY5Y, 0.062 µM); 0% (SH-SY5Y, 0.185 µM); 12% (SH-SY5Y, 0.556 µM); 30% (SH-SY5Y, 1.667 µM); 56% (SH-SY5Y, 5 µM); 68% (SH-SY5Y, 15 µM).
Consider “GGATACATTTCTACAGC (sugars e4 k1 d8 k1 e3, linkages s1 o3 s9 o1 s2)”, for which the target mRNA inhibition by setting is: (A431, 0.062 µM) 8%; (A431, 0.185 µM) 7%; (A431, 0.556 µM) 30%; (A431, 1.667 µM) 33%; (A431, 5 µM) 66%; (A431, 15 µM) 59%. Further, the target mRNA inhibition reads like this: (SH-SY5Y, 0.062 µM) 9%; (SH-SY5Y, 0.185 µM) 0%; (SH-SY5Y, 0.556 µM) 12%; (SH-SY5Y, 1.667 µM) 33%; (SH-SY5Y, 5 µM) 65%; (SH-SY5Y, 15 µM) 76%.
In the case of “ATAGCCTCATAATAAGT (sugars e2 k2 d9 k2 e2, PS)”, the target mRNA inhibition (HepG2, 5 µM) amounted to 27%.
For “GGTTTTTATTCACAGGC (sugars e2 k2 d9 k2 e2, PS)”, the target mRNA inhibition amounted to 45% (HepG2, 4 µM); 57% (HepG2, 5 µM); 51% (HepG2, 12 µM).
In the case of “CTTTGGCCCACCGTGTT (sugars e3 k2 d7 k2 e3, PS)”, the target mRNA inhibition (HepG2, 3 µM) stood at 41%.
For the setting “HepG2, 4 µM”, “ACACCACAAGCCAAACG (sugars e2 k2 d8 k2 e3, PS)” registered a target mRNA inhibition of 27%.
Sequence “TCCCCACACCTTCACT (sugars kekeddddddddekek, linkages s1 o3 s8 o1 s2)” yielded a target mRNA inhibition (A431, 0.12 µM) of 3%; a target mRNA inhibition (A431, 0.6 µM) of 44%; a target mRNA inhibition (A431, 3 µM) of 2%; a target mRNA inhibition (A431, 15 µM) of 8%; a target mRNA inhibition (HepG2, 0.222 µM) of 19%; a target mRNA inhibition (HepG2, 0.667 µM) of 9%. The target mRNA inhibition was determined as 31% (HepG2, 2 µM) and 61% (HepG2, 6 µM).
On to “AGTGTTTAATGTTTATC (sugars e2 k2 d9 k2 e2, PS)”, for which the target mRNA inhibition is 35% (HepG2, 0.1875 µM); 66% (HepG2, 0.75 µM); 83% (HepG2, 3 µM); 75% (HepG2, 4 µM); 80% (HepG2, 5 µM); 84% and 87% (HepG2, 12 µM).
For “TTTTTCATGGACCACCA (sugars e3 k2 d7 k2 e3, PS)”, the target mRNA inhibition (HepG2, 3 µM) stood at 76%.
As to “TGATTTAAGTCTGGCAA (sugars e2 k2 d9 k2 e2, PS)”, the target mRNA inhibition (HepG2, 5 µM) turned out to be 52%.
In turn, “GGGTTTTTATTCACAGG (sugars e3 k2 d7 k2 e3, PS)” had a target mRNA inhibition (HepG2, 3 µM) of 17%.
Take “ATAAGTGCCATACAGGG (sugars e2 k2 d9 k2 e2, PS)”: the target mRNA inhibition (HepG2, 5 µM) is 46%.
With “ACCTTCACTGGTCCATT (sugars e3 k2 d7 k2 e3, PS)”, the target mRNA inhibition (HepG2, 3 µM) was 44%.
Take “CCGTCGCCCTTCAGCACGCA (sugars e5 d10 e5, PS)”: the target mRNA inhibition by setting is: (A431, 0.12 µM) 0% and 5%; (A431, 0.6 µM) 7% and 0%; (A431, 3 µM) 17% and 0% and 7%; (HepG2, 0.1875 µM) 0% and 3%; (HepG2, 0.222 µM) 0% and 14%.
“GTCTCCGCGACTACTTTATA (sugars e5 d10 e5, PS)” had a target mRNA inhibition (HepG2, 4 µM) of 22%.
Under “HepG2, 5 µM”, “ATCTGTGATTTAAGTCT (sugars e2 k2 d8 k2 e3, PS)” showed a target mRNA inhibition of 35%.
In turn, “CTCCGCGCCTCGCCCACTCT (sugars e5 d10 e5, PS)” yielded a target mRNA inhibition (HepG2, 4 µM) of 40%.
As for “TGTTTAATGTTTATCAGG (sugars e5 d8 e5, linkages s1 o3 s9 o2 s2)”, the target mRNA inhibition was determined as 6% (A431, 0.12 µM); 26% (A431, 0.6 µM); 29% (A431, 3 µM); 33% (A431, 15 µM); 14% (HepG2, 0.222 µM); 39% (HepG2, 0.667 µM). The target mRNA inhibition worked out at 59% (HepG2, 2 µM) and 77% (HepG2, 6 µM).
For the sequence “GTCGCCCTTCAGCACGC (sugars e2 k2 d9 k2 e2, PS)”, the target mRNA inhibition (HepG2, 4 µM) was 72%.
“TAATACCCATCTGTGAT (sugars e3 k2 d7 k2 e3, PS)” yielded a target mRNA inhibition (HepG2, 3 µM) of 4%.
The sequence “TAATAAGTGCCATACAG (sugars e2 k2 d9 k2 e2, PS)” registered a target mRNA inhibition (HepG2, 5 µM) of 30%.
Consider “GTCGCCCTTCAGCACGCA (sugars e5 d8 e5, linkages s1 o3 s9 o2 s2)”, for which the target mRNA inhibition amounted to 10% (A431, 0.062 µM); 11% (A431, 0.185 µM); 11% (A431, 0.556 µM); 3% (A431, 1.667 µM); 18% (A431, 5 µM); 4% (A431, 15 µM). In addition, the target mRNA inhibition by setting is: (SH-SY5Y, 0.062 µM) 13%; (SH-SY5Y, 0.185 µM) 4%; (SH-SY5Y, 0.556 µM) 5%; (SH-SY5Y, 1.667 µM) 40%; (SH-SY5Y, 5 µM) 52%; (SH-SY5Y, 15 µM) 77%.
Regarding “TTTCTGGATAGAGGATTAAA (sugars e5 d10 e5, PS)”, the target mRNA inhibition (HepG2, 5 µM) is 6% and 14%.
Turning to “TTCTCACTACAGGTACTTTA (sugars e5 d10 e5, PS)”, the target mRNA inhibition (HepG2, 5 µM) turned out to be 28%.
Sequence “ATAGAGGATTAAAGTGA (sugars e3 k2 d7 k2 e3, PS)” displayed a target mRNA inhibition (HepG2, 3 µM) of 9%.
Under “HepG2, 3 µM”, “CAAATCTTCCAAGTGAT (sugars e3 k2 d7 k2 e3, PS)” displayed a target mRNA inhibition of 18%.
For the sequence “TCCCCACACCTTCACT (sugars ekddddddddekekee, linkages s1 o1 s8 o3 s2)”, the target mRNA inhibition is 0% (A431, 0.12 µM); 0% (A431, 0.6 µM); 7% (A431, 3 µM); 21% (A431, 15 µM); 16% (HepG2, 0.222 µM); 34% (HepG2, 0.667 µM). Further, the target mRNA inhibition was determined as 58% (HepG2, 2 µM) and 80% (HepG2, 6 µM).
As to “GGCCACACCATCTTTGTCAG (sugars e5 d10 e5, PS)”, the target mRNA inhibition (HepG2, 5 µM) was 23% and 5%.
In the case of “ACTTTCCTTCTGCTCGA (sugars e3 k2 d7 k2 e3, PS)”, the target mRNA inhibition (HepG2, 3 µM) came out at 0%.
In the case of “GACTACTTTATAGGCCAGAC (sugars e5 d10 e5, PS)”, the target mRNA inhibition is, setting by setting: (HepG2, 4 µM) 64% and 74%; (HepG2, 12 µM) 80%.
“TTTCTCACTACAGGTAC (sugars e2 k2 d8 k2 e3, PS)”: the target mRNA inhibition (HepG2, 5 µM) amounted to 35%.
“TTGGGCGATCCCAATTA (sugars e2 k2 d9 k2 e2, PS)”: the target mRNA inhibition (HepG2, 4 µM) amounted to 5%.
On to “AATCAGTTTCTCACTAC (sugars e2 k2 d8 k2 e3, PS)”, for which the target mRNA inhibition (HepG2, 5 µM) came out at 34%.
The sequence “ATACAAATCTTCCAAGT (sugars e3 k2 d7 k2 e3, PS)” returned a target mRNA inhibition (HepG2, 3 µM) of 15%.
As for “TCAGCACGCACACGGCCTTC (sugars e5 d10 e5, PS)”, the target mRNA inhibition by setting is: (HepG2, 0.1875 µM) 6%; (HepG2, 0.75 µM) 12%; (HepG2, 3 µM) 51%; (HepG2, 4 µM) 52%; (HepG2, 12 µM) 88%.
For the setting “HepG2, 5 µM”, “GTGCGGCCAATGATGCAATG (sugars e5 d10 e5, PS)” came in with a target mRNA inhibition of 12%.
Where the note is “HepG2, 5 µM”, “TACCCATCTGTGATTTA (sugars e2 k2 d9 k2 e2, PS)” showed a target mRNA inhibition of 45%.
With “GGATACATTTCTACAGCT (sugars e5 d8 e5, linkages s1 o3 s9 o2 s2)”, the target mRNA inhibition amounted to 0% (A431, 0.12 µM); 25% (A431, 0.6 µM); 29% (A431, 3 µM); 50% (A431, 15 µM); 38% (HepG2, 0.222 µM); 62% (HepG2, 0.667 µM). For the same sequence, the target mRNA inhibition runs as follows: (HepG2, 2 µM) 82%; (HepG2, 6 µM) 94%.
In turn, “ACAGGGTTTTTATTCAC (sugars e2 k2 d9 k2 e2, PS)” returned a target mRNA inhibition (HepG2, 5 µM) of 47%.
Still for that read-out and setting: the same measure for “AATGTTTATCAGGATACATT (sugars e5 d10 e5, PS)”: 54%; for “AAGTCTCCAACATGCCTCTC (sugars e5 d10 e5, PS)”: 20% and 6%.
For “AGTGTTTAATGTTTATCA (sugars e5 d8 e5, linkages s1 o3 s9 o2 s2)”, the target mRNA inhibition by setting is: (A431, 0.12 µM) 2%; (A431, 0.6 µM) 35%; (A431, 3 µM) 52%; (A431, 15 µM) 67%; (HepG2, 0.222 µM) 33%; (HepG2, 0.667 µM) 58%. Moreover, the target mRNA inhibition (HepG2, 2 µM) was 74% and the target mRNA inhibition (HepG2, 6 µM) turned out to be 86%.
Consider “CTTTTAATAGCCTCATA (sugars e2 k2 d9 k2 e2, PS)”, for which the target mRNA inhibition (HepG2, 5 µM) is 34%.
“TACATCCAAGGGAATGT (sugars e3 k2 d7 k2 e3, PS)”: where the note is “HepG2, 3 µM”, the target mRNA inhibition is 30%.
Still for that read-out and setting: the result for “GGTCCATTACTTTCCTT (sugars e3 k2 d7 k2 e3, PS)” reads 18%.
